Measurements from patent publication US9474790B2, “Stable, protracted GLP-1/glucagon receptor co-agonists for medical use” (Novo Nordisk A/S, priority 2013, dated 2016).
Numbered stars: 1 amine (or outer) side, 2 acyl side, 3 side chain; on linkers, the order of the positions; unused ones are H or OH. Square brackets hold non-standard residues; d marks the D form. Side chains are listed from the residue outwards. Peptide text beside a SMILES is read from it. * marks the point of attachment. C18 diacid = O=C(O)CCCCCCCCCCCCCCCCC(=O)*; γGlu = O=C(O)[C@H](CCC(=O)[*:2])N[*:1]; AEEA = NCCOCCOCC(=O)O; Aib = CC(C)(N)C(=O)O

Test: in vivo
Design: species or system c57/BL6 mice
Conditions: male, c57/BL6, mouse, sc, 10 nmol/kg
Experimental: The purpose of this assay was to assess the pharmocokinetic profiles of the glucagon derivatives of the invention in mice. The pharmacokinetic profile of glucagon-GLP1 co-agonists was tested in normal male c57/BL6 mice (approximately body weight: 30 grams), in a sparse sampling design with for example 3 mice represented at each time point (for example: t=0.25, 0.5, 1, 3, 6, 10, 24, 30 and 48 hours). The compound was dosed as a single subcutaneous dose of 10 nmol/kg at t=0. The plasma levels of the glucagon-GLP1 co-agonist compounds were determined using an ELISA/LOCI assay (see Example 80 herein). Pharmacokinetic calculations such as half-life (T1/2) maximum concentration (Cmax) and time for maximum concentration (Tmax) of the compounds were determined using the PC based software, Phoenix (WinNonLin version 6.3 from Pharsight, Certara). Samples were analysed for peptide levels using Luminescence Oxygen Channeling Immunoassay (LOCI). The donor beads were coated with streptavidin. Acceptor beads are conjugated with a monoclonal antibody specific to gGlu in the linker (NN454-1F31) while the second monoclonal antibody (1F120) specific for glucagon was biotinylated. Three reactants were combined with the analyte and formed a two-sited immuno-complex. Illumination of the complex released singlet oxygen atoms from the donor beads. They were channeled into the acceptor beads and triggered chemiluminescence which was measured in the EnVision plate reader. The amount of emitted light is proportional to the concentration of peptide. One μL sample/calibrator/control was applied to the wells of 384-well LOCI plates followed by a 15 μL mixture of the antibody-coated acceptor beads (0.5 μg/well) and the biotinylated antibody. The plates were incubated over night at 21-22° C. Following incubation, 30 μL of the streptavidin-coated donorbeads (2 μg/well) was added to each well and incubated for 30 minutes at 21-22° C. The plates were read in an Envision plate reader at 21-22° C. with a filter having a bandwidth of 520-645 nm after excitation by a 680 nm laser. The total measurement time per well was 210 ms including a 70 ms excitation time.

`CC(C)C[C@H](NC(=O)[C@H](CC(C)C)NC(=O)[C@H](Cc1c[nH]c2ccccc12)NC(=O)[C@H](CCC(N)=O)NC(=O)[C@@H](NC(=O)[C@H](Cc1ccccc1)NC(=O)[C@H](CCC(=O)O)NC(=O)[C@H](CCCNC(=N)N)NC(=O)[C@H](C)NC(=O)[C@H](CCCNC(=N)N)NC(=O)[C@H](CCCNC(=N)N)NC(=O)[C@H](CO)NC(=O)[C@H](CC(=O)O)NC(=O)[C@H](CC(C)C)NC(=O)[C@H](Cc1ccc(O)cc1)NC(=O)[C@H](CCCCN)NC(=O)[C@H](CO)NC(=O)[C@H](CC(C)C)NC(=O)[C@H](CC(=O)O)NC(=O)[C@H](CO)NC(=O)[C@@H](NC(=O)[C@H](Cc1ccccc1)NC(=O)[C@@H](NC(=O)CNC(=O)[C@H](CCC(N)=O)NC(=O)C(C)(C)NC(=O)[C@@H](N)Cc1c[nH]cn1)[C@@H](C)O)[C@@H](C)O)C(C)C)C(=O)N[C@@H](CC(N)=O)C(=O)N[C@@H](CCCCNC(=O)CC[C@H](NC(=O)CC[C@H](NC(=O)COCCOCCNC(=O)COCCOCCNC(=O)CC[C@H](NC(=O)CCCCCCCCCCCCCCCCC(=O)O)C(=O)O)C(=O)O)C(=O)O)C(N)=O` [Example 12, N^ε29-[(4S)-4-carboxy-4-[[(4S)-4-carboxy-4-[[2-[2-[2-[[2-[2-[2-[[(4S)-4-carboxy-4-(17-carboxyheptadecanoylamino)butanoyl]amino]ethoxy]ethoxy]acetyl]amino]ethoxy]ethoxy]acetyl]amino]butanoyl]amino]butanoyl]-[Aib2,Leu10,Arg20,Glu21,Leu27,Lys29]-Glucagon amide] (H-H[Aib]QGTFTSDLSKYLDSRRAREFVQWLLNK([γGlu-γGlu-AEEA-AEEA-γGlu-C18 diacid])-NH2) gave a Cmax of 24.4 nM, a Tmax of 3 h and a half-life of 14 h.
